Results reported in ChEMBL document CHEMBL1128920, “Tetrahydrothienopyridine derivatives as novel GPIIb/IIIa antagonists” (Bioorg Med Chem Lett, 1996).
Several values for one entry are separate records, joined by “and”; a condition that tells them apart may be missing. Identical values can stand only once.

Columns and labels:
Homo sapiens = species: Homo sapiens; assay: Inhibitory activity against ADP-mediated human platelet aggregation in human platelet rich plasma; format: functional
[1] = molecular target: T1, Integrin alpha-IIb/beta-3 (Homo sapiens, UniProt P05106+P08514); assay: Biotinylated fibrinogen binding to alpha IIb beta-3 integrin; format: protein-complex assay
T1 sequence (P05106 27-788 limits assumed): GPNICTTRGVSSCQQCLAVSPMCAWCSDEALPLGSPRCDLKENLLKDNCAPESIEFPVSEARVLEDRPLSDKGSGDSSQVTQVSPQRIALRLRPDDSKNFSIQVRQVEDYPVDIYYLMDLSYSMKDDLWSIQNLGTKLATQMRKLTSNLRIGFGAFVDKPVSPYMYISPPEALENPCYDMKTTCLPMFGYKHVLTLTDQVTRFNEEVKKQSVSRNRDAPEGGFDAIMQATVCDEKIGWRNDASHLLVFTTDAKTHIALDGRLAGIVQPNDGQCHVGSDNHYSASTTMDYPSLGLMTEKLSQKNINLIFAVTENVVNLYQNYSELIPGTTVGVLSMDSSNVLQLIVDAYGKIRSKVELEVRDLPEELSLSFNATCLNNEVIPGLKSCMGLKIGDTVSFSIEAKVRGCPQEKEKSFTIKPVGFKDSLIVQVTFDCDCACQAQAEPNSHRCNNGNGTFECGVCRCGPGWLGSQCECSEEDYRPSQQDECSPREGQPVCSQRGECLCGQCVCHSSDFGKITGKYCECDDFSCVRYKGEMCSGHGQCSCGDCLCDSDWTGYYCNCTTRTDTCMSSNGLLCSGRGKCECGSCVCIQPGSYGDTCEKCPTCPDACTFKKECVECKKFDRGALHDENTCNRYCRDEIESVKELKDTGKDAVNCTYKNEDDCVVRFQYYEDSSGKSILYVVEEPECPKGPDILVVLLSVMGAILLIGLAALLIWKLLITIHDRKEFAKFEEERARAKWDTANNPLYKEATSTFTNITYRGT
T1 sequence (P08514 32-887 limits assumed): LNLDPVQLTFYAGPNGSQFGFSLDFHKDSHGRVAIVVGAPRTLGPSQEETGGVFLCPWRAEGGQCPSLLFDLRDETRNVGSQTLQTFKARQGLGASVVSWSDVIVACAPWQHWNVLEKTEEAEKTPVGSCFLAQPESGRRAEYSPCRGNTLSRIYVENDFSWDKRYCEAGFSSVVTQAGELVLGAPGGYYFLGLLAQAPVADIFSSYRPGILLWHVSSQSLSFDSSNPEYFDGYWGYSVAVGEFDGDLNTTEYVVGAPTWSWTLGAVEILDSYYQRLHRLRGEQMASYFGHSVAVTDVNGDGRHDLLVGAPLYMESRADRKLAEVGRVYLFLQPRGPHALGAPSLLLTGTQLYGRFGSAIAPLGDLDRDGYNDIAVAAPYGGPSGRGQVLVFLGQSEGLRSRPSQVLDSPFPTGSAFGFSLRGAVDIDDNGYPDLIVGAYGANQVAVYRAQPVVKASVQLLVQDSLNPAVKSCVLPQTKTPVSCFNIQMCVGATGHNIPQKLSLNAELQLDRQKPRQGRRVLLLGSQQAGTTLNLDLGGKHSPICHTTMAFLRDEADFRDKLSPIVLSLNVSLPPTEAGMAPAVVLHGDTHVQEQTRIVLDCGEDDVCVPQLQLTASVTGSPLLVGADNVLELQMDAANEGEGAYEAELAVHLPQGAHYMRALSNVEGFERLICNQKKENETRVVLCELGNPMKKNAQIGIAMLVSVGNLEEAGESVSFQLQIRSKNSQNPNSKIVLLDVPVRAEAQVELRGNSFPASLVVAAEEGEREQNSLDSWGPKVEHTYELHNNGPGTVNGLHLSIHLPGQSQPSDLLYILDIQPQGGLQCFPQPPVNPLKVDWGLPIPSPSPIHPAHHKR
T1 sequence (P08514 891-1039 limits assumed): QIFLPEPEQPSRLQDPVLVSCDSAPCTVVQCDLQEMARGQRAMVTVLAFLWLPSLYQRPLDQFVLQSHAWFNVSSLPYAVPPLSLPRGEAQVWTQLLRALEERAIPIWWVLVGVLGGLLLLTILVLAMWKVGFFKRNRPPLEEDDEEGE

[2] = molecular target: T1, Integrin alpha-IIb/beta-3; assay: Inhibition of biotinylated fibrinogen binding to alphaIIb-beta3 integrin; format: protein-complex assay
[3] = molecular target: T1, Integrin alpha-IIb/beta-3; assay: Inhibition of vWF binding to GPIIb/IIIIa receptor; format: protein-complex assay
[4] = Inhibition of fibronectin binding to GPIIb/IIIIa fibronectin receptor
[5] = molecular target: T1, Integrin alpha-IIb/beta-3; assay: Inhibition of Vitronectin binding to GPIIb/IIIIa Vitronectin receptor; format: protein-complex assay
[6] = molecular target: T1, Integrin alpha-IIb/beta-3; assay: Inhibition of vWF binding to alphaIIb-beta3 integrin; format: protein-complex assay

SMILES	IC50 (Homo sapiens) [nM]	IC50 [1]	further results
O=C(O)COc1cc(OCC(=O)O)cc(C(=O)CNC(=O)c2cc3c(s2)CCNC3)c1	> 10000	> 1000 nM	
O=C(O)COc1ccc(C(=O)CNC(=O)c2cc3c(s2)CNC3)cc1OCC(=O)O	1600		IC50 [2]: > 100 nM
O=C(O)COc1ccc(C(=O)CNC(=O)CCCC2CCNCC2)cc1OCC(=O)O	9000		IC50 [2]: > 100 nM
O=C(O)COc1ccc(C(=O)CNC(=O)C2CCNCC2)cc1OCC(=O)O	9800	> 1000 nM	
O=C(O)COc1ccc(C(=O)CNC(=O)c2cc3c(s2)CCNC3)cc1	1200	31 nM	
O=C(O)COc1ccc(C(=O)CNC(=O)c2sc3c(c2Cc2ccccc2)CNCC3)cc1OCC(=O)O	> 10000	62 nM	
NC(N)=NCCC[C@H](N)C(=O)NCC(=O)N[C@@H](CC(=O)O)C(=O)O	87000		IC50 [3]: 4 µM; IC50 [4]: 510 nM; IC50 [5]: 1400 nM; IC50 [2]: 76 nM
NCC1CCC(C(=O)NCC(=O)c2ccc(OCC(=O)O)c(OCC(=O)O)c2)CC1 (centres undefined)	4300		IC50 [2]: 730 nM
O=C(O)COc1ccc(C(=O)CNC(=O)c2cc3c(s2)CCNC3)nc1	720	100 nM	
O=C(O)COc1ccc(C(=O)CNC(=O)c2cc3c(s2)CCNC3)c(OCC(=O)O)c1	1500	> 100 nM	
O=C(O)COc1ccc(C(=O)CNC(=O)c2cc3c(s2)CCCNC3)cc1OCC(=O)O	1900	8.7 nM	
Cc1c(C(=O)NCC(=O)c2ccc(OCC(=O)O)c(OCC(=O)O)c2)sc2c1CNCC2	2500	18 nM	
O=C(O)COc1ccc(C(=O)CNC(=O)c2cc3c(s2)CNCC3)cc1OCC(=O)O	230	1.4 nM	
O=C(O)COc1ccc(C(=O)CNC(=O)c2cc3c(s2)CCNCC3)cc1OCC(=O)O	150	6 nM	
O=C(O)CCc1ccc(C(=O)CNC(=O)c2cc3c(s2)CCNC3)cc1	> 10000	80 nM	
O=C(O)COc1ccc(C(=O)CNC(=O)CCC2CCNCC2)cc1OCC(=O)O	350	42 nM	
O=C(O)COc1ccc(C(=O)CNC(=O)CC2CCNCC2)cc1OCC(=O)O	10000	> 100 nM	
O=C(O)COc1cnc(C(=O)CNC(=O)c2cc3c(s2)CCNC3)cc1OCC(=O)O	470	9.8 nM	
O=C(O)COc1ccc(C(=O)CNC(=O)c2cc3c(s2)CCNC3)cc1OCC(=O)O	160	4.7 nM and 5.6 nM	IC50 [4]: > 100000 nM; IC50 [6]: 28 nM; IC50 [5]: > 100000 nM
